US10160767B2 (Institute of Pharmacology and Toxicology Academy of …, priority 2014, dated 2018)

What was measured:
[1] = system: metastatic soft-tissue or bone sarcomas; details: phase-III; cited from earlier work
[2] = cited from earlier work
[3] = Toxicity on rat primary hepatocytes (ATP detection); format: cell-based; details: SD, ATP detection reagent
Protocol: Experimental method: Liver lobes of SD rat were placed in sterilized plate, added with a suitable amount of liver cell cleaning solution (precooled at 4° C.), the liver was shredded and fibrous connective tissues were removed to form a liver cell suspension, screened with 200 mesh screen and placed in 50 ml centrifuge tube, centrifuged at 500 rpm for 1-2 min; the supernatant was removed, the precipitate was added with 20-30 ml of RPMI […] (precooled at 4° C.) and washed 3 times; isovolumetric liver cell suspension was taken and suspended in Percoll separating solution I, mixed by turning upside down, centrifuged at 4° C. and 800 rpm for 10 min, the supernatant was discarded, the liver cells were washed with PBS once (800 rpm, 5 min). The liver cell precipitate was added into liver cell culture fluid, resuspended and diluted to 10 ml, and a suitable amount thereof was taken for counting and survival rate was determined by using 0.4% trypan blue. The liver cells with survival rate of 90% or more were inoculated in a density of 2×10^3 on 96-well plate, 100 μl of RPMI 1640 culture medium was added to each well, culture was performed at 37° C., 5% CO2 for 24 h. The compounds were diluted with DMSO to desired concentrations and added to each well in an amount of 1 μl (final compound concentrations were usually initiated from 1000 μM, 10× gradient dilution, 6 gradients), and blank control was added with 1 μl of DMSO.
After the cells were cultured at 37° C., 5% CO2 for 24 h, 100 μl of ATP detection reagent was added, incubated under shock for 15 min. fluorescence values of wells were read by ELIASA. Cell survival rates for each example compounds were calculated, and then GIs values (concentrations of added compounds at which growth of 50% cells was inhibited) were calculated.

mTORC1 = mTORC1 (Homo sapiens, UniProt P42345); assay: Inhibition of mTORC1 in A549 cells: phosphorylation of Thr389 of S6K1 by Western blot; format: cell-based; details: compound 20 μM with insulin 167 nM, 2 h, semi-quantitative
Text: Molecular mechanism of action of the example compounds in tumor cell A549.
Experimental materials: DMEM high-glucose cell culture media (Hyclone Company), fetal calf serum (FBS) (Gibco Company), penicillin and streptomycin were purchased from North China Pharmaceutical Co., Ltd, phosphate buffer saline (PBS) was purchased from Gibco Company, pancreatic enzyme and dimethylsulfoxide (DMSO) were products of Sigma Company. A549 cell line (human lung adenocarcinoma cell line) was purchased from ATCC. Mouse anti-human p-p70S6K(T389) monoclonal antibody was purchased from Cell Signaling Technology Company, mouse anti-human p70S6K monoclonal antibody was purchased from Cell Signaling Technology Company, mouse anti-human p-AKT (S473) monoclonal antibody was purchased from Cell Signaling Technology Company, mouse anti-human AKTmonoclonal antibody was purchased from Cell Signaling Technology Company. Horseradish peroxidase-labeled goat anti-mouse, goat anti-mouse monoclonal antibodies were purchased from Cell Signaling Technology Company. […]

tumor cell A549 = assay: Tumor cell inhibition, Cell Titer-Glo cell viability; format: cell-based; details: Homo sapiens, A549 cells, 72 h
Protocol: The activities of example compounds to tumor cell A549 were evaluated.
(§1) Experimental materials: DMEM high-glucose cell culture media (Hyclone Company), fetal calf serum (FBS) (Gibco Company), penicillin and streptomycin were purchased from North China Pharmaceutical Co., Ltd, phosphate buffer saline (PBS) was purchased from Gibco Company, Cell Titer-Glo® cell viability detection reagent was purchased from Promega Company, pancreatin and dimethylsulfoxide (DMSO) were products of Sigma Company. A549 cell line (human lung adenocarcinoma cell line) was purchased from ATCC.
(§2) The cells were inoculated on a 96-well plate with white wall and penetrative bottom (Costar) in amount of 5000 cells per well, cultured at condition of 37° C., 5% CO2 for 24 h. The compounds to be tested were dissolved with DMSO and diluted to 100 mM, to obtain mother liquids of the compounds.
(§3) DMEM culture solution containing 2% FBS was used to diluted the compounds, in which concentration gradients were 3, and concentration range was 100 μM to 3 nM. The compounds in various dilution degrees were added to the cultured cells on the 96-well plate, 100 μl per well. Culture was performed at 37° C., CO2 for 72 h, supernatant was discarded, and cell viability detection test was performed.
(§4) AfterCell Titer-Glo® reaction buffer solution was mixed with isometric substrate, the mixture was added to 96-well plate, 100 μl per well. Cell lysis was induced by horizontally shaking for 4 min. Reaction signal was stabilized by balancing at room temperature for 15 min. Chemiluminescence units in each well of the 96-well plate were detected by using chemiluminescence detector.
(§5) Inhibition rates at different dilution degrees of each compound were calculated according to chemiluminescence value of each well, and Origin 8.0 software was used for S-type curve fitting of each compound, and for calculating EC50 value.

[4] = system: multi-drug resistant tumor cell line MES-SA; assay: Inhibition of drug-resistant tumor cell line, Cell Titer-Glo cell viability; therapeutic index against MRC5 cells; format: cell-based; details: Homo sapiens, 72 h
Protocol: The activity of example compounds to multi-drug resistant tumor cell line MES-SA was evaluated.
as §1, with “MES-SA” for “A549”, “uterine sarcoma” for “lung adenocarcinoma”, “ATCC. MRC5 cell (human embryonic lung fibroblast) was purchased from ATCC.” for “ATCC.”
as §2
as §3, with “0.046 μM.” for “3 nM.”
as §4
as §5, with “value. The ratio of EC50 value of compound for MRC5 cell to EC50 value of compound for MES-SA cell was used as therapeutic index for the compound.” for “value.”

T cell proliferation = details: read-out: Median inhibitory concentration (IC50), T cell proliferation; cited from earlier work
[5] = system: renal cell carcinoma (RCC); details: early RCC patients; cited from earlier work

CO[C@H]1C[C@@H]2CC[C@@H](C)[C@@](O)(O2)C(=O)C(=O)N2CCCC[C@H]2C(=O)O[C@H]([C@H](C)C[C@@H]2CC[C@@H](OP(C)(C)=O)[C@H](OC)C2)CC(=O)[C@H](C)/C=C(\C)[C@@H](O)[C@@H](OC)C(=O)[C@H](C)C[C@H](C)/C=C/C=C/C=C/1C [Ridaforolimus]
Mortality risk reduction in comparison with placebo group [1]: 28%

CO[C@H]1C[C@@H]2CC[C@@H](C)[C@@](O)(O2)C(=O)C(=O)N2CCCC[C@H]2C(=O)O[C@H]([C@H](C)C[C@@H]2CC[C@@H](OCCO)[C@H](OC)C2)CC(=O)[C@H](C)/C=C(\C)[C@@H](O)[C@@H](OC)C(=O)[C@H](C)C[C@H](C)/C=C/C=C/C=C/1C [Everolimus, 42-O-(2-hydroxyethyl)-rapamycin]
Half-life ([2]; in human body): 16 to 19 h
Oral bioavailability ([2]; oral): 15%-30%

CO[C@H]1C[C@@H]2CC[C@@H](C)[C@@](O)(O2)C(=O)C(=O)N2CCCC[C@H]2C(=O)O[C@H]([C@H](C)C[C@@H]2CC[C@@H](O)[C@H](OC)C2)CC(=O)[C@H](C)/C=C(\C)[C@@H](O)[C@@H](OC)C(=O)[C@H](C)C[C@H](C)/C=C/C=C/C=C/1C [Rapamycin, reference compound]
GI50 at 24 h [3]: 24.8 µM
Inhibition of mTORC1 (phosphorylation of Thr389 of S6K1) (mTORC1): could only inhibit mTORC1
IC50 (tumor cell A549): 49.4 µM
IC50 [4]: < 0.046 µM

CO[C@H]1C[C@@H]2CC[C@@H](C)[C@@](O)(O2)C(=O)C(=O)N2CCCC[C@H]2C(=O)O[C@H]([C@H](C)C[C@@H]2CC[C@@H](OC(=O)C[n+]3cccc(C)c3)[C@H](OC)C2)CC(=O)[C@H](C)/C=C(\C)[C@@H](O)[C@@H](OC)C(=O)[C@H](C)C[C@H](C)/C=C/C=C/C=C/1C.[Br-] [Example 11, 42-O-carbonylmethyl-(3-methyl-pyridine bromide salt-1-yl)-rapamycin]
GI50 at 24 h [3]: 71.8 µM
IC50 (tumor cell A549): 52.8 µM
IC50 [4]: < 0.046 µM
melting point: 138 to 140 °C

CO[C@H]1C[C@@H]2CC[C@@H](C)[C@@](O)(O2)C(=O)C(=O)N2CCCC[C@H]2C(=O)O[C@H]([C@H](C)C[C@@H]2CC[C@@H](O)[C@H](OC)C2)CC(=O)[C@H](C)/C=C(\C)[C@@H](OC(=O)C[n+]2ccc(C)cc2)[C@@H](OC)C(=O)[C@H](C)C[C@H](C)/C=C/C=C/C=C/1C.[Br-] [Example 17, 31-O-carbonylmethyl-(4-methyl-pyridine bromide salt-1-yl)-rapamycin]
GI50 at 24 h [3]: 54.3 µM
IC50 (tumor cell A549): 40.8 µM
IC50 [4]: < 0.046 µM
melting point: 145 to 148 °C

CO[C@H]1C[C@@H]2CC[C@@H](C)[C@@](O)(O2)C(=O)C(=O)N2CCCC[C@H]2C(=O)O[C@H]([C@H](C)C[C@@H]2CC[C@@H](OC(=O)C(C)(CO)CO)[C@H](OC)C2)CC(=O)[C@H](C)/C=C(\C)[C@@H](O)[C@@H](OC)C(=O)[C@H](C)C[C@H](C)/C=C/C=C/C=C/1C [Temsirolimus]
IC50 (T cell proliferation): 0.0008 µM
Extension of median survival time [5]: 3-6 months

CO[C@H]1C[C@@H]2CC[C@@H](C)[C@@](O)(O2)C(=O)C(=O)N2CCCC[C@H]2C(=O)O[C@H]([C@H](C)C[C@@H]2CC[C@@H](OC(=O)C[n+]3ccc(C)cc3)[C@H](OC)C2)CC(=O)[C@H](C)/C=C(\C)[C@@H](O)[C@@H](OC)C(=O)[C@H](C)C[C@H](C)/C=C/C=C/C=C/1C.[Br-] [Example 13, 42-O-carbonylmethyl-(4-methyl-pyridine bromide salt-1-yl)-rapamycin]
GI50 at 24 h [3]: 44.9 µM
IC50 (tumor cell A549): 44.8 µM
IC50 [4]: < 0.046 µM
melting point: 157 to 160 °C
